Patent US9809585B2, “Fluorinated 2-arylbenzo heterocyclic compound with high affinity to Aβ 946; plaques and containing chiral side chain substituent, and preparation method and usage thereof” (BEIJING ZHIBO BIO-MEDICAL TECHNOLOGY CO.,LTD, priority 2014, dated 2017)
Values belong to the compound of their own block, whether it stands above or below them.

Key:
protein polymer Aβ1-42 = biological target: T1, protein polymer Aβ1-42 (Homo sapiens, UniProt P05067); assay: Competitive binding experiment (Ki assay) against [125I]IMPY; conditions: read-out: Ki (inhibition constant)
T1 construct: A receptor Aβ1-42 protein is prepared by an established method
Description: Competitive binding experiment (Ki assay): Put a protein polymer Aβ1-42 of a certain concentration and a radioactive ligand [^125I] […] (5) A glass fiber filter is soaked in a PBS solution containing 0.1% (volume fraction) of polyethyleneimine for 0.5 h. (6) Add 100 μL of a solution of a compound to be tested and of different concentrations, 100 μL of the [^125I] […] Seal the tub with parafilm and swirl it. (7) Shake the tube in a water bath constantly at 37° C. and maintain the incubation for 2 h. (8) Collect the reaction solution with a multi-phase cell collector. Rinse the collected solution with the PBS for three times, 3 mL for each rinse. (9) Count with a γ counter. (10) Process the data.

[1] = In-vivo biodistribution experiment on normal mice; set-up: species or system mice (ICR, male); conditions: for Bones radioactivity: tail vein injection
Description: The in-vivo pharmacokinetic properties of mice have been studied with the in-vivo biodistribution experiment, especially the absorption by the primitive brain and the removal from the brain.
Inject 5-10 μCi of a labeled compound (100 μL of a physiological saline solution containing 5% of ethanol) into normal mice (ICR, male, 20-22 g) (n=5) by tail vein injection. The mice are decapitated respectively 2 minutes, 10 minutes, 30 minutes and 60 minutes after the injection. Dissect the mice and take out the relevant organs. Measure the moisture content and the radioactivity amount. The measurement values represent the percentage of the radioactivity amount in an organ (% ID/organ) and the percentage of the radioactivity amount in the organ of one gram (% ID/g).

T1 sequence (P05067 672-713 limits assumed): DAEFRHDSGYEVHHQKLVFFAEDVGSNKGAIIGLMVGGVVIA

Ki (protein polymer Aβ1-42): 27.2 ± 2.9 nM
Compound: CNc1ccc(-c2nc3ccc(OC[C@@H](O)CF)cc3s2)cc1 [Compound 14r]

Ki (protein polymer Aβ1-42): 26 ± 6.5 nM
Compound: CNc1ccc(-c2nc3ccc(OC[C@H](O)CF)cc3s2)cc1 [Compound 14s]

Ki (protein polymer Aβ1-42): 3.2 ± 1.1 nM
Compound: CN(C)c1ccc(-c2nc3ccc(OC[C@@H](O)CF)cc3s2)cc1 [Compound 15r]

Ki (protein polymer Aβ1-42): 3.7 ± 1.1 nM
Compound: CN(C)c1ccc(-c2nc3ccc(OC[C@H](O)CF)cc3s2)cc1 [Compound 15s]

Ki (protein polymer Aβ1-42): 9.9 ± 2.8 nM
Compound: CNc1ccc(-c2nc3ccc(OC[C@@H](O)CF)cc3s2)cn1 [Compound 16r]

Ki (protein polymer Aβ1-42): 45.4 ± 11.8 nM
Compound: CNc1ccc(-c2nc3ccc(OC[C@H](O)CF)cc3s2)cn1 [Compound 16s]

Ki (protein polymer Aβ1-42): 11.1 ± 5.4 nM
Compound: CN(C)c1ccc(-c2nc3ccc(OC[C@@H](O)CF)cc3s2)cn1 [Compound 17r]

Ki (protein polymer Aβ1-42): 27.2 ± 7.1 nM
Compound: CN(C)c1ccc(-c2nc3ccc(OC[C@H](O)CF)cc3s2)cn1 [Compound 17s]

Ki (protein polymer Aβ1-42): 129 ± 40.2 nM
Compound: CNc1ccc(-c2nc3ccc(OC[C@@H](O)CF)cc3o2)cc1 [Compound 18r]

Ki (protein polymer Aβ1-42): 103 ± 18.6 nM
Compound: CNc1ccc(-c2nc3ccc(OC[C@H](O)CF)cc3o2)cc1 [Compound 18s]

Ki (protein polymer Aβ1-42): 10.8 ± 2.6 nM
Compound: CN(C)c1ccc(-c2nc3ccc(OC[C@@H](O)CF)cc3o2)cc1 [Compound 19r]

Ki (protein polymer Aβ1-42): 11 ± 1.5 nM
Compound: CN(C)c1ccc(-c2nc3ccc(OC[C@H](O)CF)cc3o2)cc1 [Compound 19s]

Ki (protein polymer Aβ1-42): 85.3 ± 5.2 nM
Compound: CNc1ccc(-c2nc3cc(OC[C@@H](O)CF)ccc3o2)cc1 [Compound 28r]

Ki (protein polymer Aβ1-42): 67.3 ± 5.5 nM
Compound: CNc1ccc(-c2nc3cc(OC[C@H](O)CF)ccc3o2)cc1 [Compound 28s]

Ki (protein polymer Aβ1-42): 7.6 ± 2.8 nM
Compound: CN(C)c1ccc(-c2nc3cc(OC[C@@H](O)CF)ccc3o2)cc1 [Compound 29r]

Ki (protein polymer Aβ1-42): 15.5 ± 3.2 nM
Compound: CN(C)c1ccc(-c2nc3cc(OC[C@H](O)CF)ccc3o2)cc1 [Compound 29s]

Ki (protein polymer Aβ1-42): 187 ± 39 nM
Compound: CNc1ccc(-c2nc3cc(OC[C@@H](O)CF)ccc3o2)cn1 [Compound 30r]

Ki (protein polymer Aβ1-42): 196 ± 49.1 nM
Compound: CNc1ccc(-c2nc3cc(OC[C@H](O)CF)ccc3o2)cn1 [Compound 30s]

Ki (protein polymer Aβ1-42): 27.2 ± 6.3 nM
Compound: CN(C)c1ccc(-c2nc3cc(OC[C@@H](O)CF)ccc3o2)cn1 [Compound 31r]

Ki (protein polymer Aβ1-42): 57.4 ± 7.6 nM
Compound: CN(C)c1ccc(-c2nc3cc(OC[C@H](O)CF)ccc3o2)cn1 [Compound 31s]

Bones radioactivity ([1]; 2 min.): 2.43 ± 0.53 % ID/g | Bones radioactivity ([1]; 10 min): 2.31 ± 0.26 % ID/g | Bones radioactivity ([1]; 30 min): 1.42 ± 0.27 % ID/g | Bones radioactivity ([1]; 1 h): 1.12 ± 0.59 % ID/g
Compound: CN(C)c1ccc(-c2nc3ccc(OC[C@@H](O)C[18F])cc3s2)cc1 [Compound [^18F]15r]

Bones radioactivity ([1]; 2 min.): 2.31 ± 0.71 % ID/g | Bones radioactivity ([1]; 10 min): 1.82 ± 0.39 % ID/g | Bones radioactivity ([1]; 30 min): 1.45 ± 0.48 % ID/g | Bones radioactivity ([1]; 1 h): 1.08 ± 0.38 % ID/g
Compound: CN(C)c1ccc(-c2nc3ccc(OC[C@H](O)C[18F])cc3s2)cc1 [Compound [^18F]15s]

Bones radioactivity ([1]; 2 min.): 1.41 ± 0.29 % ID/g | Bones radioactivity ([1]; 10 min): 1.79 ± 0.21 % ID/g | Bones radioactivity ([1]; 30 min): 1.19 ± 0.15 % ID/g | Bones radioactivity ([1]; 1 h): 3.05 ± 0.86 % ID/g
Compound: CNc1ccc(-c2nc3cc(OC[C@@H](O)C[18F])ccc3o2)cc1 [Compound [^18F]28r]

Bones radioactivity ([1]; 2 min.): 1.63 ± 0.44 % ID/g | Bones radioactivity ([1]; 10 min): 0.77 ± 0.11 % ID/g | Bones radioactivity ([1]; 30 min): 0.52 ± 0.16 % ID/g | Bones radioactivity ([1]; 1 h): 0.74 ± 0.13 % ID/g
Compound: CNc1ccc(-c2nc3cc(OC[C@H](O)C[18F])ccc3o2)cc1 [Compound [^18F]28s]

Bones radioactivity ([1]; 2 min.): 2.12 ± 0.60 % ID/g | Bones radioactivity ([1]; 10 min): 1.24 ± 0.40 % ID/g | Bones radioactivity ([1]; 30 min): 1.36 ± 0.41 % ID/g | Bones radioactivity ([1]; 1 h): 1.93 ± 0.77 % ID/g
Compound: CN(C)c1ccc(-c2nc3cc(OC[C@@H](O)C[18F])ccc3o2)cc1 [Compound [^18F]29r]

ratio of the absorption in 2 minutes to that in 60 minutes (brain) ([1]; brain): 27.8 | Bones radioactivity ([1]; 2 min.): 2.06 ± 0.45 % ID/g | Bones radioactivity ([1]; 10 min): 0.99 ± 0.35 % ID/g | Bones radioactivity ([1]; 30 min): 0.85 ± 0.30 % ID/g | Bones radioactivity ([1]; 1 h): 1.13 ± 0.28 % ID/g
Compound: CN(C)c1ccc(-c2nc3cc(OC[C@H](O)C[18F])ccc3o2)cc1 [Compound [^18F]29s]
removal from the brain [1]: quickly removed from the brain of normal mice
